Measurements reported in publication PMC7125190, “Native/citrullinated LL37-specific T-cells help autoantibody production in Systemic Lupus Erythematosus” (Scientific Reports, 2020).

Test system: pDCs
Assay: Stimulation of pDCs (IFN-α ELISA)
Assay type: cell-based
Conditions: peptide premixed with human genomic DNA 10 µg/mL, 24 hours, Fig. S4B
From the text: Buffy coats of HD were from Centro Trasfusionale, Policlinico Umberto I, Rome, IT. After separation of mononuclear cells by Ficoll centrifugation, pDCs were purified as described[9],[10], by using the Diamond Plasmacytoid Dendritic Cell Isolation Kit (Miltenyi Biotec) to obtain 99% purity.
Antibodies and reagents for flow cytometry, confocal microscopy and immunohistochemistry Antibodies to CD4, CD8, CD3, conjugated with various fluorochromes [FITC, phycoerythrin (PE), peridinin-chlorophyll-protein (PerCp), allophycocyanin (APC), PE-Cy7] were from BD Biosciences or eBiosciences (San Diego, CA). For further LL37-specific T-cell characterization, FITC-, APC-, PE-, PerCp-, PerCpCy5.5-, APC-Cy7-, AlexaFluor488-conjugated CCR6, -CLA, -CXCR5 (FAB190), PD1, -ICOS, -CD38, CD19, CD20, CD27, CD138 antibodies were purchased from BD Biosciences, eBiosciences, Novus Biologicals (Littleton, CO), R&D (Minneapolis, MN), Invitrogen Life Technologies. […]
Purified pDCs were seeded into 96-well round-bottom plates at 3.5/5 × 10^4 cells per well in 200 μl RPMI 1640 (GIBCO), supplemented with 15% fetal calf serum (FCS), 1% Hepes and 1% sodium piruvate. […] IFN-α in supernatants was measured by enzyme linked immunosorbent assay (ELISA) (MabTech, France) after 24 hours. […]

Q: With “LLGDFFR(cit)KSKEKIGKEFKR(cit)IVQR(cit)IKDFLR(cit)NLVPR(cit)TES [cit-LL37, citrullinated LL37 (citrullinated at all five arginin positions)]” as the substance, how does the “adjuvant activity for DCs” value read?
A: The value was “completely devoid of adjuvant activity for DCs”.
